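Tested at 5 concentrations; 48 h exposure; 96-well plates; endpoints linearly interpolated, else capped at highest concentration. Abbreviation: GI50, concentration required for 50% inhibition of growth. TGI marks complete inhibition of growth.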
How the values were obtained:
Test in all cases: DTP human tumour cell line panel, 48 h
[1] = system: K-562 leukemia
[2] = system: MOLT-4 leukemia
[3] = system: COLO 205 colon
[4] = system: MDA-MB-231 breast
[5] = system: SF-295 CNS
[6] = system: A498 renal
[7] = system: RPMI-8226 leukemia
[8] = system: DU-145 prostate
[9] = system: NCI/ADR-RES ovarian
[10] = system: SK-OV-3 ovarian
[11] = system: SK-MEL-2 melanoma
[12] = system: MALME-3M melanoma
[13] = system: CAKI-1 renal
[14] = system: HL-60(TB) leukemia
[15] = system: NCI-H226 lung
[16] = system: SN12C renal
[17] = system: HCC-2998 colon
[18] = system: UO-31 renal
[19] = system: 786-0 renal
[20] = system: EKVX NSCLC
[21] = system: BT-549 breast
[22] = system: LOX IMVI melanoma
[23] = system: UACC-62 melanoma
[24] = system: NCI-H460 lung
[25] = system: HCT-15 colon
[26] = system: KM12 colon
[27] = system: MCF7 breast
[28] = system: OVCAR-4 ovarian
[29] = system: U251 CNS
[30] = system: NCI-H23 lung
[31] = system: OVCAR-8 ovarian
[32] = system: SF-539 CNS
[33] = system: SK-MEL-28 melanoma
[34] = system: SF-268 CNS
[35] = system: HOP-62 NSCLC
[36] = system: TK-10 renal
[37] = system: NCI-H522 lung
[38] = system: SK-MEL-5 melanoma
[39] = system: SR leukemia
[40] = system: T-47D breast
[41] = system: M14 melanoma
[42] = system: OVCAR-5 ovarian
[43] = system: A549 NSCLC
[44] = system: SW-620 colon
[45] = system: PC-3 prostate
[46] = system: HS 578T breast
[47] = system: SNB-19 CNS
[48] = system: SNB-75 CNS
[49] = system: ACHN renal
[50] = system: OVCAR-3 ovarian
[51] = system: UACC-257 melanoma
[52] = system: HOP-92 NSCLC
[53] = system: HCT-116 colon
[54] = system: IGROV1 ovarian
[55] = system: CCRF-CEM leukemia
[56] = system: MDA-MB-435
[57] = system: HT29 colon

Which results are given for CNn1c(C)n[nH]c1=O?
TGI [1]: > 100 µM; TGI [2]: > 100 µM; TGI [3]: > 100 µM; TGI [4]: > 100 µM; TGI [5]: > 100 µM; TGI [6]: > 100 µM; TGI [7]: > 100 µM; TGI [8]: > 100 µM; TGI [9]: > 100 µM; TGI [10]: > 100 µM; TGI [11]: > 100 µM; TGI [12]: > 100 µM; TGI [13]: > 100 µM; TGI [14]: > 100 µM; TGI [15]: > 100 µM; TGI [16]: > 100 µM; TGI [17]: > 100 µM; TGI [18]: > 100 µM; TGI [19]: > 100 µM; TGI [20]: > 100 µM; TGI [21]: > 100 µM; TGI [22]: > 100 µM; TGI [23]: > 100 µM; TGI [24]: > 100 µM; TGI [25]: > 100 µM; TGI [26]: > 100 µM; TGI [27]: > 100 µM; TGI [28]: > 100 µM; TGI [29]: > 100 µM; TGI [30]: > 100 µM; TGI [31]: > 100 µM; TGI [32]: > 100 µM; TGI [33]: > 100 µM; TGI [34]: > 100 µM; TGI [35]: > 100 µM; TGI [36]: > 100 µM; TGI [37]: > 100 µM; TGI [38]: > 100 µM; TGI [39]: > 100 µM; TGI [40]: > 100 µM; TGI [41]: > 100 µM; TGI [42]: > 100 µM; TGI [43]: > 100 µM; TGI [44]: > 100 µM; TGI [45]: > 100 µM; TGI [46]: > 100 µM; TGI [47]: > 100 µM; TGI [48]: 85.1 µM; TGI [49]: > 100 µM; TGI [50]: > 100 µM; TGI [51]: > 100 µM; TGI [52]: > 100 µM; TGI [53]: > 100 µM; TGI [54]: > 100 µM; TGI [55]: > 100 µM; TGI [56]: > 100 µM

With O=S(=O)(c1ccc(N=C2NN=C(c3c[nH]c4ccccc34)CS2)cc1)N1CCOCC1 as the compound, how does the GI50 [1] read?
Its GI50 is 2.65 µM.

What about the TGI [1] of the same compound?
Its TGI is greater than 100 µM.

And the GI50 [2]?
The GI50 was 3.93 µM.

What about the TGI [2] of the same compound?
The TGI was 40.9 µM.

And the GI50 [3]?
Its GI50 is 14.7 µM.

What about the TGI [3] of the same compound?
Its TGI is greater than 100 µM.

What about the GI50 [4] of the same compound?
Its GI50 is 45.3 µM.

What about the TGI [4] of the same compound?
The TGI was greater than 100 µM.

What about the GI50 [6] of the same compound?
Its GI50 is 15.7 µM.

And the TGI [6]?
The TGI was greater than 100 µM.

What about the GI50 [7] of the same compound?
The GI50 was 3.72 µM.

And the TGI [7]?
Its TGI is 76.9 µM.

What about the GI50 [8] of the same compound?
Its GI50 is greater than 100 µM.

What about the TGI [8] of the same compound?
The TGI was greater than 100 µM.

What about the GI50 [9] of the same compound?
The GI50 was 20.6 µM.

What about the TGI [9] of the same compound?
Its TGI is greater than 100 µM.

And the GI50 [10]?
Its GI50 is greater than 100 µM.

And the TGI [10]?
The TGI was greater than 100 µM.

And the GI50 [11]?
The GI50 was 6.22 µM.

What about the TGI [11] of the same compound?
The TGI was greater than 100 µM.

And the GI50 [12]?
Its GI50 is 34.8 µM.

What about the TGI [12] of the same compound?
The TGI was greater than 100 µM.

What about the GI50 [57] of the same compound?
The GI50 was 4.48 µM.

And the TGI [57]?
Its TGI is greater than 100 µM.

What about the GI50 [13] of the same compound?
Its GI50 is 78.1 µM.

What about the TGI [13] of the same compound?
The TGI was greater than 100 µM.

What about the GI50 [14] of the same compound?
Its GI50 is 2.25 µM.

What about the TGI [14] of the same compound?
The TGI was greater than 100 µM.

And the GI50 [15]?
The GI50 was 7.74 µM.

What about the TGI [15] of the same compound?
The TGI was greater than 100 µM.

And the GI50 [16]?
The GI50 was 79.4 µM.

What about the TGI [16] of the same compound?
Its TGI is greater than 100 µM.

And the GI50 [17]?
Its GI50 is 24.6 µM.

And the TGI [17]?
Its TGI is greater than 100 µM.

And the GI50 [18]?
Its GI50 is 19.1 µM.

What about the TGI [18] of the same compound?
Its TGI is greater than 100 µM.

What about the GI50 [19] of the same compound?
Its GI50 is 2.55 µM.

And the TGI [19]?
The TGI was 42.3 µM.

What about the GI50 [20] of the same compound?
Its GI50 is 5.76 µM.

And the TGI [20]?
The TGI was greater than 100 µM.

What about the GI50 [21] of the same compound?
The GI50 was 2.86 µM.

What about the TGI [21] of the same compound?
Its TGI is 11.3 µM.

What about the GI50 [22] of the same compound?
The GI50 was 11.2 µM.

What about the TGI [22] of the same compound?
The TGI was greater than 100 µM.

What about the GI50 [23] of the same compound?
Its GI50 is 26.8 µM.

And the TGI [23]?
Its TGI is greater than 100 µM.

And the GI50 [24]?
Its GI50 is 5.04 µM.

And the TGI [24]?
Its TGI is greater than 100 µM.

What about the GI50 [25] of the same compound?
The GI50 was 8.06 µM.

And the TGI [25]?
The TGI was greater than 100 µM.

What about the GI50 [26] of the same compound?
The GI50 was 7.13 µM.

What about the TGI [26] of the same compound?
Its TGI is greater than 100 µM.

What about the GI50 [27] of the same compound?
Its GI50 is 4.31 µM.

And the TGI [27]?
Its TGI is greater than 100 µM.

And the GI50 [28]?
Its GI50 is 15.6 µM.

What about the TGI [28] of the same compound?
Its TGI is greater than 100 µM.

And the GI50 [29]?
The GI50 was 8.48 µM.

And the TGI [29]?
Its TGI is greater than 100 µM.

And the GI50 [30]?
The GI50 was 18.3 µM.

What about the TGI [30] of the same compound?
Its TGI is greater than 100 µM.

What about the GI50 [31] of the same compound?
The GI50 was 9.61 µM.

What about the TGI [31] of the same compound?
The TGI was greater than 100 µM.

And the GI50 [32]?
The GI50 was 27.7 µM.

And the TGI [32]?
The TGI was greater than 100 µM.

What about the GI50 [33] of the same compound?
Its GI50 is 37.7 µM.

And the TGI [33]?
Its TGI is greater than 100 µM.

What about the GI50 [34] of the same compound?
The GI50 was 73.7 µM.

And the TGI [34]?
Its TGI is greater than 100 µM.

And the GI50 [36]?
The GI50 was 26.3 µM.

What about the TGI [36] of the same compound?
The TGI was greater than 100 µM.

What about the GI50 [37] of the same compound?
The GI50 was greater than 100 µM.

What about the TGI [37] of the same compound?
Its TGI is greater than 100 µM.

What about the GI50 [38] of the same compound?
Its GI50 is 2.51 µM.

What about the TGI [38] of the same compound?
Its TGI is 16.4 µM.

And the GI50 [39]?
The GI50 was 4.81 µM.

What about the TGI [39] of the same compound?
The TGI was greater than 100 µM.

And the GI50 [40]?
Its GI50 is 3.56 µM.

And the TGI [40]?
Its TGI is 78.6 µM.

What about the TGI [41] of the same compound?
The TGI was greater than 100 µM.

What about the GI50 [42] of the same compound?
The GI50 was 49.1 µM.

And the TGI [42]?
The TGI was greater than 100 µM.

And the GI50 [43]?
Its GI50 is 8.68 µM.

And the TGI [43]?
The TGI was greater than 100 µM.

What about the GI50 [44] of the same compound?
Its GI50 is 77.2 µM.

What about the TGI [44] of the same compound?
Its TGI is greater than 100 µM.

And the GI50 [45]?
Its GI50 is 10.3 µM.

What about the TGI [45] of the same compound?
The TGI was greater than 100 µM.

And the GI50 [46]?
The GI50 was 31.4 µM.

What about the TGI [46] of the same compound?
Its TGI is greater than 100 µM.

What about the GI50 [47] of the same compound?
Its GI50 is 45.6 µM.

And the TGI [47]?
The TGI was greater than 100 µM.

And the GI50 [48]?
The GI50 was 21.6 µM.

What about the TGI [48] of the same compound?
Its TGI is greater than 100 µM.

What about the GI50 [49] of the same compound?
The GI50 was 88.6 µM.

What about the TGI [49] of the same compound?
The TGI was greater than 100 µM.

What about the GI50 [50] of the same compound?
Its GI50 is 18.8 µM.

What about the TGI [50] of the same compound?
The TGI was greater than 100 µM.

What about the GI50 [51] of the same compound?
The GI50 was 9.54 µM.

And the TGI [51]?
Its TGI is greater than 100 µM.

What about the GI50 [52] of the same compound?
Its GI50 is 3.7 µM.

And the TGI [52]?
Its TGI is greater than 100 µM.

What about the GI50 [53] of the same compound?
The GI50 was 7.35 µM.

And the TGI [53]?
Its TGI is greater than 100 µM.

And the GI50 [54]?
Its GI50 is greater than 100 µM.

And the TGI [54]?
Its TGI is greater than 100 µM.

What about the GI50 [55] of the same compound?
The GI50 was 4.69 µM.

What about the TGI [55] of the same compound?
The TGI was 58.8 µM.

What about the GI50 [56] of the same compound?
The GI50 was 8.85 µM.

And the TGI [56]?
Its TGI is greater than 100 µM.
